Assay results taken from ChEMBL document CHEMBL1150452, “Kinetic characterization of a peptide inhibitor of trypsin isolated from a synthetic peptide combinatorial library” (Bioorg Med Chem Lett, 1995).
Values belong to the molecule of their own block, whether it stands above or below them.

What was measured:
[1] = target: T1, Serine protease 1 (Bos taurus) (UniProt P00760)
T1 sequence (whole entry): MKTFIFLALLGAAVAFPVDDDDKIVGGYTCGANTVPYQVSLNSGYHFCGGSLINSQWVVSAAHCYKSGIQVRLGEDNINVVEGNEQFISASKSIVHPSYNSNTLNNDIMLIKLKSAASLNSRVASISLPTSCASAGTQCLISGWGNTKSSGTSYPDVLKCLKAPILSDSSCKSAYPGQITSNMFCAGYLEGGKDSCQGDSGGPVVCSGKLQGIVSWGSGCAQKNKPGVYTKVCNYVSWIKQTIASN
Description: (§1) Trypsin inhibitory potency was evaluated from the catalytic constant Kcat.

[2] = target: T2, Serine protease 1 (Bos taurus, UniProt P00760); assay: Inhibitory activity against trypsin
T2 sequence (P00760 whole entry): T1 sequence (whole entry)

[3] = target: T2, Serine protease 1; assay: Inhibitory activity against trypsin mediated Tyr-Gly-Aer-p- nitroaniline
[4] = target: T1, Serine protease 1 (Bos taurus); remark: listed apart in the source
Description: as §1

[5] = substrate: CC[C@H](C)[C@H](NC(=O)[C@H](CCCCN)NC(=O)CNC(=O)[C@H](Cc1ccc(O)cc1)NC(=O)[C@@H](N)Cc1ccc(O)cc1)C(=O)N[C@@H](Cc1ccc(O)cc1)C(=O)N[C@@H](CCCN=C(N)N)C(=O)N1CCC[C@H]1C(=O)N[C@@H](CC(=O)O)C(=O)N[C@@H](CCCCN)C(=O)N[C@@H](CCSC)C(=O)O; conditions: Bos taurus
Description: Trypsin inhibitory potency was evaluated from the Michaelis-Menten constant KM.

Molecule: CC[C@H](C)[C@H](NC(=O)[C@H](CCCCN)NC(=O)[C@H](C)NC(=O)CNC(=O)[C@H](Cc1ccc(O)cc1)NC(=O)[C@@H](N)Cc1ccc(O)cc1)C(=O)N[C@@H](Cc1ccc(O)cc1)C(=O)N[C@@H](C)C(=O)N1CCC[C@@H]1C(=O)N[C@@H](CC(=O)O)C(=O)N[C@@H](CCCCN)C(=O)N[C@@H](CCSC)C(=O)O
- k cat [1]: 0.6 s⁻¹

Molecule: H-YYGAKAYRPDKM-OH
- k cat [1]: 87 s⁻¹

Molecule: H-YYGAKIYRPDKM-OH
- IC50 [2]: 10 µM
- Ki [3]: 9.4 µM

Molecule: H-YYGKIYRPDKM-OH
- k cat [4]: 0.73 s⁻¹

B1: Serine protease 1 (Bos taurus), P00760 (protein)
chain: T1 sequence (whole entry)
- Km [5]: 24 mM

Second part, the molecule after the results:

- k cat [1]: 1.3 s⁻¹
Molecule: CC[C@H](C)[C@H](NC(=O)[C@H](CCCCN)NC(=O)[C@H](C)NC(=O)CNC(=O)[C@H](Cc1ccc(O)cc1)NC(=O)[C@@H](N)Cc1ccc(O)cc1)C(=O)N[C@@H](C)C(=O)N[C@@H](CCCN=C(N)N)C(=O)N1CCC[C@@H]1C(=O)N[C@@H](CC(=O)O)C(=O)N[C@@H](CCCCN)C(=O)N[C@@H](CCSC)C(=O)O

- k cat [1]: 30 s⁻¹
Molecule: CC[C@H](C)[C@H](NC(=O)[C@H](CCCN=C(N)N)NC(=O)[C@H](C)NC(=O)CNC(=O)[C@H](Cc1ccc(O)cc1)NC(=O)[C@@H](N)Cc1ccc(O)cc1)C(=O)N[C@@H](Cc1ccc(O)cc1)C(=O)N[C@@H](CCCN=C(N)N)C(=O)N1CCC[C@@H]1C(=O)N[C@@H](CC(=O)O)C(=O)N[C@@H](CCCCN)C(=O)N[C@@H](CCSC)C(=O)O
